Molecules are shown by their SMILES. Converted amounts (≈) assume the structure as drawn. Bounds are passed on as bounds.

The record followed here is patent US20220127297A1, “Novel Antibacterial 3"-Derivatives Of 4,6-Disubstituted 2,5-Dideoxystreptamine Aminoglycoside Antibiotics” (AGILeBiotics B.V., priority 2018, published 2022).

The subject of one assay is S. aureus ATCC 29213. The assay can be described thus: MIC 90, broth micro-dilution, ATCC strains. Format: cell-based, Staphylococcus aureus. The conditions noted are these: Staphylococcus aureus, ATCC29213, read-out: MIC 90. The text has this: (§1) 3.3 Protocol for MIC Determination (ATCC Strains)
(§2) Tested reference compounds. Amikacin sulfate (Cat. No. 01693, Chem-Impex), Gentamicin sulfate (Cat. No. G4918, Sigma Aldrich), Azithromycin (Cat. No. 1046056, USP), Ceftazidime Pentahydrate (Cat. No. 1098130, USP), Ciprofloxacin (Cat. No. 1134313, USP), Meropenem (Cat. No. 1392454, USP), Rifampicin (Cat. No. R0079, TCI), Tobramycin (Cat. No. 1667508, USP), Vancomycin (Cat. No. 1709007 USP).
(§3) Microbial strains. Staphylococcus aureus ATCC 29213, Staphylococcus aureus ATCC BAA-1717, Escherichia coli ATCC BAA-1025, Klebsiella pneumoniae ATCC BAA-1705, Klebsiella pneumoniae ATCC BAA-2524, Pseudomonas aeruginosa ATCC 27853, Pseudomonas aeruginosa ATCC BAA-2108, Acinetobacter baumannii ATCC BAA-1800.
(§4) Culture media and equipment. BBL™ Mueller Hinton Broth (REF 275730, Lot. 7009699, Becton Dickinson), Mueller Hinton Agar 2 (Ref. No. 97580-500G-F, Lot. No. BCBV4646, Sigma), Dulbecco's Modified Eagle's Medium (DMEM) (Cat. No. 41966-029, Gibco), Minimum Essential Medium (MEM) (Cat. No. 42360-024, Gibco), Fetal bovine serum (FBS) (Cat. No. F7524, Sigma), Non-essential amino acids (NEAA) (100×, Cat. No. 11140-035, Gibco), Sodium Pyruvate (100 mM, 100×, Cat. No. 11360-039, Gibco), Staurosporine (Cat. No. B50188, Biotrend), Cellstar 96-well plates U-bottom (Cat. No. 650180, Lot. No. E14123EB, Greiner Bio-one), CellTiter-Glo (Cat. No. G7573, Promega), 96-well plate V-bottom (Cat. No. 651201, Greiner), 96-well clear plate, U-bottom, (Cat. No. 650180, Greiner), 96-well white plate with clear bottom (Cat. No. 655098, Greiner), 96-well deep well plate 1 mL (Cat. No. 278606, Nunc), Sodium Pyruvate (100 mM, 100×, Gibco, Cat #11360-039), Incubator (Binder), Laminar flow (Thermo Scientific), BioPhotometer (Eppendorf); DEN-1B (McFarland Densitometer, Biosan); McFarland standards (polymer microparticle suspension, Biosan).
(§5) Compound preparation. The test compounds and reference antibiotics were prepared according to CLSI guidelines (Clinical and Laboratory Standards Institute (CLSI); Methods for dilution antimicrobial susceptibility tests for bacteria that grow aerobically; approved standard—ninth edition, M07-A9, Vol. 32, No. 2, 2012) as 5 mg/mL stock solutions in DMSO. Out of these DMSO solutions, 43.5 μL was transferred to 1656.5 μL of MH media in a deep well plate. Out of these working solutions 100 μL was transferred to wells in the third column of 96-well plates. Plates were previously filled with 50 μL of MH media in all wells except for the wells in the third column. After compound and antibiotic addition, 50 μL was transferred from the third to the fourth column, then from the fourth to the fifth and so on. In this manner, the compounds and antibiotics were plated in 96-well plate in serial two-fold dilutions giving a final concentration range of 64-0.125 μg/mL.
(§6) Preparation of microorganisms. Designations used for clinical isolates were from the Fidelta strain collection bank. Microorganisms used were all revived from skim milk storage at −70° C. by plating them on MH agar plates. The following day the single colony of each microorganism was again streaked on fresh agar plates. The next day, using the direct colony suspension method, broth solutions that achieve turbidity equivalent to 0.5 McFarland standard for each microorganism were prepared. […] Out of these suspensions, actual inoculums were prepared by diluting them 100× with MH media giving a final microorganism count of 2-8×10^5 CFU/mL. For each strain of microorganisms, 20 mL of these inoculum solutions were prepared. From the second to the twelfth column of 96-well plates, 50 μL of these solutions were transferred per well. To the first column, 50 μL per well of pure growth media was added. In this manner the first column was used as sterility control of media, the second column was used as control of microorganism's growth and the rest of the plate was used for MIC determination. All plates were incubated for 16-24 h at 37° C. […]

Assay [1] relates to E. coli ATCC BAA-1025 (= BL 21). The assay can be described thus: MIC 90, broth micro-dilution, ATCC strains. The format is cell-based, Escherichia coli. The following applies: Escherichia coli, ATCCBAA1025, read-out: MIC 90.
Excerpt: as §1, §2, §3, §4, §5, §6

A further assay relates to S. aureus ATCC BAA-1717. In words: MIC 90, resistant ATCC strains of the ESKAPE panel. Format: cell-based. The following applies: Staphylococcus aureus, MRSA.
Excerpt: as §1, §2, §3, §4, §5, §6

Assay [2] concerns P. aeruginosa ATCC BAA-2108. The assay can be described thus: MIC 90, resistant ATCC strains of the ESKAPE panel. Format: cell-based. The following applies: Pseudomonas aeruginosa, ATCCBAA2108, MDR.
Excerpt: as §1, §2, §3, §4, §5, §6

In assay [3] the test system is K. pneumoniae ATCC BAA-2524. In words: MIC 90, resistant ATCC strains of the ESKAPE panel. The format is cell-based. The conditions noted are these: Klebsiella pneumoniae, ATCCBAA2524, OXA-48.
Excerpt: as §1, §2, §3, §4, §5, §6

Assay [4] deals with K. pneumoniae ATCC BAA-1705. In words: MIC 90, resistant ATCC strains of the ESKAPE panel. Format: cell-based. The following applies: Klebsiella pneumoniae, ATCCBAA1705, KPC.
Excerpt: as §1, §2, §3, §4, §5, §6

The test system of assay [5] is A. baumannii ATCC BAA-1800. The assay can be described thus: MIC 90, resistant ATCC strains of the ESKAPE panel. Format: cell-based. The conditions noted are these: Acinetobacter baumannii, ATCCBAA1800, MDR.
Excerpt: as §1, §2, §3, §4, §5, §6

Another assay has as its system P. aeruginosa ATCC 27853. The assay can be described thus: MIC 90, broth micro-dilution, ATCC strains. Format: cell-based, Pseudomonas aeruginosa. The conditions noted are these: Pseudomonas aeruginosa, ATCC27853, read-out: MIC 90.
Excerpt: as §1, §2, §3, §4, §5, §6

Turning to `N=C(N)NC1C(O)[C@@H](CO)OC(OC2C(F)[C@H](O[C@H]3OC(CN)[C@@H](O)CC3N)C(N)C[C@H]2NC(=O)[C@@H](O)CCN)[C@@H]1O` (stereo partly shown) [ABX5006, Tobra-AHB-F-Gua], the MIC90 with S. aureus ATCC 29213 is 0.5 µM (≈ 0.306 µg/mL); in assay [1], 0.5 µM (≈ 0.306 µg/mL); against S. aureus ATCC BAA-1717 it was 0.5 µg/mL (≈ 0.816 µM); in assay [2], 4 µg/mL (≈ 6.53 µM); in assay [3], less than 0.125 µg/mL; in assay [4], 2 µg/mL (≈ 3.26 µM). Further, the MIC90 in assay [5] was determined as 16 µg/mL (≈ 26.1 µM); in the assay with P. aeruginosa ATCC 27853, 0.25 µM (≈ 0.153 µg/mL).
In the case of `N=C(NCCN)NC1C(O)[C@@H](CO)OC(OC2C(F)[C@H](O[C@H]3OC(CN)[C@@H](O)CC3N)C(N)C[C@H]2NC(=O)[C@@H](O)CCN)[C@@H]1O` (stereo partly shown) [ABX5020, Tobra-AHB-F-Gua-2-amino-ethyl], the MIC90 came to 0.25 µM (≈ 0.164 µg/mL) in the assay on S. aureus ATCC 29213; 1 µM (≈ 0.656 µg/mL) in assay [1]; 0.25 µg/mL (≈ 0.381 µM) in the assay with S. aureus ATCC BAA-1717; 2 µg/mL (≈ 3.05 µM) in assay [2]; 0.5 µg/mL (≈ 0.763 µM) in assay [3]; 8 µg/mL (≈ 12.2 µM) in assay [4]. In addition, the MIC90 in assay [5] came to 32 µg/mL (≈ 48.8 µM); in the assay with P. aeruginosa ATCC 27853, 0.25 µM (≈ 0.164 µg/mL).
`N=C(NC[C@@H]1CCCN1)NC1[C@@H](O)C(OC2[C@@H](F)[C@H](O[C@H]3OC(CN)[C@@H](O)CC3N)C(N)C[C@H]2NC(=O)[C@@H](O)CCN)O[C@H](CO)[C@H]1O` (stereo partly drawn) [ABX5026, Tobra-AHB-F-Gua (S) pyrrolidine-2-yl-methyl]: the MIC90 came out at 0.5 µM (≈ 0.348 µg/mL) in the assay on S. aureus ATCC 29213; 1 µM (≈ 0.696 µg/mL) in assay [1]; 0.5 µg/mL (≈ 0.719 µM) with S. aureus ATCC BAA-1717; 8 µg/mL (≈ 11.5 µM) in assay [2]; 0.5 µg/mL (≈ 0.719 µM) in assay [3]; 4 µg/mL (≈ 5.75 µM) in assay [4]. The MIC90 was determined as 32 µg/mL (≈ 46 µM) in assay [5] and 1 µM (≈ 0.696 µg/mL) with P. aeruginosa ATCC 27853.
For `N=C(NC[C@H]1CCNC1)NC1[C@@H](O)C(OC2[C@@H](F)[C@H](O[C@H]3OC(CN)[C@@H](O)CC3N)C(N)C[C@H]2NC(=O)[C@@H](O)CCN)O[C@H](CO)[C@H]1O` (stereo partly drawn) [ABX5042, Tobra-AHB-F-Gua (S) pyrrolidine-3-ylmethyl], the MIC90 with S. aureus ATCC BAA-1717 came to 0.5 µg/mL (≈ 0.719 µM); in assay [2], 8 µg/mL (≈ 11.5 µM); in assay [3], 0.5 µg/mL (≈ 0.719 µM); in assay [4], 4 µg/mL (≈ 5.75 µM); in assay [5], 32 µg/mL (≈ 46 µM).
As for `NCC[C@H](O)C(=O)N[C@@H]1C[C@H](N)[C@@H](O[C@H]2O[C@H](CN)[C@@H](O)[C@H](O)[C@H]2O)[C@H](O)[C@H]1O[C@H]1O[C@H](CO)[C@@H](O)[C@H](N)[C@H]1O` [Amikacin, amikacin, reference compound], the MIC90 with S. aureus ATCC 29213 was 4 µM (≈ 2.34 µg/mL); in assay [1], 2 µM (≈ 1.17 µg/mL); against S. aureus ATCC BAA-1717, 4 µg/mL (≈ 6.83 µM); in assay [2], 16 µg/mL (≈ 27.3 µM); in assay [3], 0.5 µg/mL (≈ 0.854 µM); in assay [4], 32 µg/mL (≈ 54.6 µM). Besides, the values for the MIC90 (in assay [5]; in the assay with P. aeruginosa ATCC 27853) were 64 µg/mL (≈ 109 µM) and 1 µM (≈ 0.586 µg/mL), respectively.
